# Earlier results in patent US5807857A, “Piperazine, piperidine and tetrahydropyridine derivative of indol-3-alkyl as 5-HT1D-α agonists” (Merck Sharp & Dohme Ltd., priority 1994, dated 1998).
# Columns and labels:
# [1] = administration to humans at therapeutic doses
# [2] = test system: human 5-HT1Dα and 5-HT1Dβ receptor subtypes; details: cf. WO-A-91/17174, Table 1
smiles,measurement,setting,value
CNS(=O)(=O)Cc1ccc2[nH]cc(CCN(C)C)c2c1 [sumatriptan],adverse cardiovascular events in humans,[1],certain adverse cardiovascular events
same,discrimination between the human 5-HT1Dα and 5-HT1Dβ receptor subtypes,[2],barely discriminates
